29 compounds from ChEMBL document CHEMBL4028801, “A multifactorial approach to hepatobiliary transporter assessment enables improved therapeutic compound development” (Toxicol Sci, 2013) can be followed below.

The term IC50 denotes the point on the concentration scale where inhibition reaches its midpoint.

Where a name gives a salt, the structure may show the parent alone.

The target in test [1] is ATP-binding cassette sub-family C member 2 (Homo sapiens, UniProt Q92887). The experiment in a line: Inhibition of human MRP2 overexpressed in Sf9 cell membrane vesicles assessed as uptake of [3H]-estradiol-17beta-D-glucuronide in presence of ATP and GSH measured after 20 mins by membrane vesicle transport assay.
Test [2] has as its target T1, ATP-binding cassette sub-family C member 4 (Homo sapiens, UniProt O15439).
T1 sequence (O15439 whole entry): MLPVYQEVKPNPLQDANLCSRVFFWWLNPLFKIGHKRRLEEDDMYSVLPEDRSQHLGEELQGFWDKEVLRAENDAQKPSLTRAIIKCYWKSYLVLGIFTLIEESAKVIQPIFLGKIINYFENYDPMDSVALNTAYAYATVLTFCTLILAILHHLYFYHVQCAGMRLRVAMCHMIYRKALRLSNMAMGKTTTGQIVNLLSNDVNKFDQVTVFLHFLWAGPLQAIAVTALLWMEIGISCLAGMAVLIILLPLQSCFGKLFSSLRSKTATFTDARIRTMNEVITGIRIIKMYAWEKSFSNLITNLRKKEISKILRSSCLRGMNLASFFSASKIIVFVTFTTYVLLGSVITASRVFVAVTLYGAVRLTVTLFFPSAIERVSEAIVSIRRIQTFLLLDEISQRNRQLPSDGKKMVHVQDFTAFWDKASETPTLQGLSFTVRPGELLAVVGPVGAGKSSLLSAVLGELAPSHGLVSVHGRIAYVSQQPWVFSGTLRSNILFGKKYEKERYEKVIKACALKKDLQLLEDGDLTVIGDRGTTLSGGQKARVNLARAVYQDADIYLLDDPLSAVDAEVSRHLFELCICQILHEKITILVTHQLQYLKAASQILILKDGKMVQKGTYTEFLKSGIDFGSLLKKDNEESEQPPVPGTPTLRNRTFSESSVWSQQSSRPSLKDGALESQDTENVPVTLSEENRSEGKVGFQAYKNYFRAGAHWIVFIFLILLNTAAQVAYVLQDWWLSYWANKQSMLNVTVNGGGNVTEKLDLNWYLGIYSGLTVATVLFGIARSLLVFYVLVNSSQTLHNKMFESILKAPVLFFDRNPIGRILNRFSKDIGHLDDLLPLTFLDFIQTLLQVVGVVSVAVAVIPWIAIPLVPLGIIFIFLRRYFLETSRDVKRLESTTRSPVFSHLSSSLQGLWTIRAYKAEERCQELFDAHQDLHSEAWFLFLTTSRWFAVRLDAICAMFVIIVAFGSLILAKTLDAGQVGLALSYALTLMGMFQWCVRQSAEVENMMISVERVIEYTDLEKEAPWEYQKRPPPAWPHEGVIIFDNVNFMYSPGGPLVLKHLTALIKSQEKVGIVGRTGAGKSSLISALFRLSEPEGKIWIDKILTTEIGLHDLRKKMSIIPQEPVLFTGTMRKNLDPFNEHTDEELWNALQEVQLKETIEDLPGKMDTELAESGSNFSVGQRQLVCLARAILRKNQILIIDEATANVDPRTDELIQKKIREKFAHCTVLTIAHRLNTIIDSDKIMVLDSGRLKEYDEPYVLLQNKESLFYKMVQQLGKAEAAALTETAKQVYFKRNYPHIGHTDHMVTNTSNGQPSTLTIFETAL
In words: Inhibition of human MRP4 overexpressed in Sf9 cell membrane vesicles assessed as uptake of [3H]-estradiol-17beta-D-glucuronide in presence of ATP and GSH measured after 20 mins by membrane vesicle transport assay. The format is ADME, cell-based.

Test [3] has as its target Bile salt export pump (Homo sapiens, UniProt O95342). The experiment in a line: Inhibition of human BSEP overexpressed in Sf9 cell membrane vesicles assessed as uptake of [3H]-taurocholate in presence of ATP measured after 15 to 20 mins by membrane vesicle transport assay. The format is ADME, cell-based.
Test [4] addresses ATP-binding cassette sub-family C member 3 (Homo sapiens, UniProt O15438). The experiment in a line: Inhibition of human MRP3 overexpressed in Sf9 insect cell membrane vesicles assessed as uptake of [3H]-estradiol-17beta-D-glucuronide in presence of ATP and GSH measured after 10 mins by membrane vesicle transport assay. The format is ADME, cell-based.

Sequence of Bile salt export pump (O95342 whole entry): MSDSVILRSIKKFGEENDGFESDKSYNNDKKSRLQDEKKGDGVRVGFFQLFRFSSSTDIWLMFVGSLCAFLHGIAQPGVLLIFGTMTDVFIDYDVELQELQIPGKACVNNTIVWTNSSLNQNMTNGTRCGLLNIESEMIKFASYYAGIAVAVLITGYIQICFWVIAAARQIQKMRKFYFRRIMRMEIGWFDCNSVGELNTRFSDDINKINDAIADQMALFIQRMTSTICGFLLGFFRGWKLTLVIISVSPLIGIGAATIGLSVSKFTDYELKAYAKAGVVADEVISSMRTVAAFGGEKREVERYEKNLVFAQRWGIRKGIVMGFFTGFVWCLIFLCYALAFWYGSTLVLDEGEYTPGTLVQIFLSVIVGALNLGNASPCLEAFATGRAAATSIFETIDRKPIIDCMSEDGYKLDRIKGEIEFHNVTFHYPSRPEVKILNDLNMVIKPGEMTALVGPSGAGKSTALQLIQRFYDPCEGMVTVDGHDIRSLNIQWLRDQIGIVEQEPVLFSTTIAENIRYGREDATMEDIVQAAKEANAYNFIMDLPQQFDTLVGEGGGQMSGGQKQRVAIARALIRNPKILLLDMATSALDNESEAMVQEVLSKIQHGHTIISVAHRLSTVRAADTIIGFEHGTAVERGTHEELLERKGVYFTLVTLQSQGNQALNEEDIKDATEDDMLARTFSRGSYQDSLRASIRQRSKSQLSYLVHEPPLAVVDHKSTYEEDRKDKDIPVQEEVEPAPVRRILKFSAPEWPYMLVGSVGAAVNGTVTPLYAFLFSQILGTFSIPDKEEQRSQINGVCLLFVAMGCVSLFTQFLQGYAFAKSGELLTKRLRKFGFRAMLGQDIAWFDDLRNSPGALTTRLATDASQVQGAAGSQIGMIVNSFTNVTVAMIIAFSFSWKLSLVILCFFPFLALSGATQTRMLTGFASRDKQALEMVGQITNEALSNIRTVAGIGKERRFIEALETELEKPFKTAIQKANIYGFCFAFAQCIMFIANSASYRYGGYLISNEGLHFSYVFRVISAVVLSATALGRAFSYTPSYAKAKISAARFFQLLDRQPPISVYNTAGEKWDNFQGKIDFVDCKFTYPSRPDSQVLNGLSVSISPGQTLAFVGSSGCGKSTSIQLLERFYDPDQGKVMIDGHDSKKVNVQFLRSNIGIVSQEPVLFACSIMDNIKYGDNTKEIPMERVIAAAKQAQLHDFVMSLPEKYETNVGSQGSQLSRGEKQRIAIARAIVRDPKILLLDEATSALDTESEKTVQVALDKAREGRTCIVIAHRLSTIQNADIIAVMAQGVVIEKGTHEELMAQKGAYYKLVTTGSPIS
Sequence of ATP-binding cassette sub-family C member 2 (Q92887 whole entry): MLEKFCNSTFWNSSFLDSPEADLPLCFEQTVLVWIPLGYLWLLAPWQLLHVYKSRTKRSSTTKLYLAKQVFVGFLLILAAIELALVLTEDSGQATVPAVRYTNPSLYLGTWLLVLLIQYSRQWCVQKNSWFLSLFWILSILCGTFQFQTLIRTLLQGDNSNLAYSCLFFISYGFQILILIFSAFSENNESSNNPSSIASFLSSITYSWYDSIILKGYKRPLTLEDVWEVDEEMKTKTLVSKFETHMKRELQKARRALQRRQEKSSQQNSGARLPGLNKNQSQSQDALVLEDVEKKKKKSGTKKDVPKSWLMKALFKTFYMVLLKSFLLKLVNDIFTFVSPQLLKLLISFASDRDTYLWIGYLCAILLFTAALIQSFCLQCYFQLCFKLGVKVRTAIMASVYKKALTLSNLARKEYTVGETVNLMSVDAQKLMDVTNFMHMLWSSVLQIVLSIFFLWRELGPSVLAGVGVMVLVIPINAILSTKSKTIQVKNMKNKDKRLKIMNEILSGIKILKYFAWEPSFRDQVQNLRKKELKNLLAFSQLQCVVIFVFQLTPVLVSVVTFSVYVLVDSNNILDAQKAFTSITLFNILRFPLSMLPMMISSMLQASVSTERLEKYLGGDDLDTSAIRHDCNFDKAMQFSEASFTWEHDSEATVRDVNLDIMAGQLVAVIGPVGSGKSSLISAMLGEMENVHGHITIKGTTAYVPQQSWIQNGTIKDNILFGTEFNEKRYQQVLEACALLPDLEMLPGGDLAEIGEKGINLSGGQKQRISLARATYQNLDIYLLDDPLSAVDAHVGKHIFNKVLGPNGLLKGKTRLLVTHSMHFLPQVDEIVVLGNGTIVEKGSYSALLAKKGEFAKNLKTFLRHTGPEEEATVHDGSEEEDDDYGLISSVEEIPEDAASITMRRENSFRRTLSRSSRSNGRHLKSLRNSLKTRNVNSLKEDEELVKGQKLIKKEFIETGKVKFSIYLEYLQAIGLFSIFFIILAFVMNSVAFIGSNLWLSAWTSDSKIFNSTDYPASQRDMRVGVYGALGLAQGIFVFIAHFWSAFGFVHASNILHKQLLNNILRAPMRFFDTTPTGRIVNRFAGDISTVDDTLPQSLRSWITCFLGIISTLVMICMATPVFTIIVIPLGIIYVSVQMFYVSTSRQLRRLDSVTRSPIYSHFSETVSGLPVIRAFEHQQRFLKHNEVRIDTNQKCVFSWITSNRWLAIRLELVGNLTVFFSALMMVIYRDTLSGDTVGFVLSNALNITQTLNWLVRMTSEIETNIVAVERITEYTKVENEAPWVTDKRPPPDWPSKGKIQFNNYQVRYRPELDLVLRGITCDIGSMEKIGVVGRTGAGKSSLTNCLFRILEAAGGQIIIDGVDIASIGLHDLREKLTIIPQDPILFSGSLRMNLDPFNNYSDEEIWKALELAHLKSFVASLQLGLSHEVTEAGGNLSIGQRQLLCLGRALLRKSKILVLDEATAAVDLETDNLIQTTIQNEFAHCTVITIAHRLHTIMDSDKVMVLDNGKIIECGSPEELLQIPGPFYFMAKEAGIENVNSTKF
Sequence of ATP-binding cassette sub-family C member 3 (O15438 whole entry): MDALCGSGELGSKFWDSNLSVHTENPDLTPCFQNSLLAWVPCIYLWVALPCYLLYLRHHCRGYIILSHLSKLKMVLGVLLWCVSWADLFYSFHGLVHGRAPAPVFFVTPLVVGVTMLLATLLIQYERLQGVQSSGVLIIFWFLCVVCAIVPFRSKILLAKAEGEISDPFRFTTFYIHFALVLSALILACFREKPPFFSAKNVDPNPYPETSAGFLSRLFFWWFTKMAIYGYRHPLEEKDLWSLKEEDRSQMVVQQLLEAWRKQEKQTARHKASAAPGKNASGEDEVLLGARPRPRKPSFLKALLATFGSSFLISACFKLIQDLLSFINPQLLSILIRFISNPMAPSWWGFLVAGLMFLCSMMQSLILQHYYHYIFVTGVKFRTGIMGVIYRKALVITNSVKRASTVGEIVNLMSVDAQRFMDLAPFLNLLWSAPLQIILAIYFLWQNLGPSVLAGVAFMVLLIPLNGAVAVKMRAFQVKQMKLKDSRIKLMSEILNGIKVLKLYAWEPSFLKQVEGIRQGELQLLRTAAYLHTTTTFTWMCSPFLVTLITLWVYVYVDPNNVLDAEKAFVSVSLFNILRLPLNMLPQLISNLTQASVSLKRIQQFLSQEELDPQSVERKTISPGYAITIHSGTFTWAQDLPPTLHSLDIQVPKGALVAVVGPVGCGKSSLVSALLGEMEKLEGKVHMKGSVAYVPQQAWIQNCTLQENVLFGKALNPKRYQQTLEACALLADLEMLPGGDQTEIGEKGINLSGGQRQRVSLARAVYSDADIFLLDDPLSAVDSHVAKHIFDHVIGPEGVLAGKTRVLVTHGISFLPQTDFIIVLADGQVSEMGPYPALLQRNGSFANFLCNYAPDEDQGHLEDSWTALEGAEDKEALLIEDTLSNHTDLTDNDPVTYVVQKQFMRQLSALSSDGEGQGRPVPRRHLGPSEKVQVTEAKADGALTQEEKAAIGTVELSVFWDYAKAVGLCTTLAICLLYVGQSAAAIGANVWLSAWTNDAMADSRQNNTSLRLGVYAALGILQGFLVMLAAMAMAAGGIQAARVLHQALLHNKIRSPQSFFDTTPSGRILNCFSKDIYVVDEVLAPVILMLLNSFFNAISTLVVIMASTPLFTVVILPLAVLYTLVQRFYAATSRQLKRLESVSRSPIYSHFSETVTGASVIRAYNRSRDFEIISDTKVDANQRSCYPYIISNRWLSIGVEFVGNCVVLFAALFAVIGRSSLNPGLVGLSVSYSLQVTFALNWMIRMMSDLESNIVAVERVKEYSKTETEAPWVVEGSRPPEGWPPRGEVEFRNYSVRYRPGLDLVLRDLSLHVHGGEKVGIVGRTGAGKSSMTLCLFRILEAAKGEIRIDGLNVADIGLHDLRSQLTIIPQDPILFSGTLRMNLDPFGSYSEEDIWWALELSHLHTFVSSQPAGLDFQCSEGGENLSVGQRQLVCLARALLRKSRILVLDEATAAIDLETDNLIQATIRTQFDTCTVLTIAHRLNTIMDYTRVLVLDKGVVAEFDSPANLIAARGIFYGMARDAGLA

In the case of `O=c1[nH]c2ccccc2n1CCCN1CCC(n2c(=O)[nH]c3cc(Cl)ccc32)CC1` [DOMPERIDONE], the concentration for half-maximal inhibition (IC50) in test [1], in test [2], in test [3] and in test [4] was greater than 133 µM each time.
Turning to `CCNC(=O)[C@@H]1CCCN1C(=O)[C@H](CCCNC(=N)N)NC(=O)[C@H](CC(C)C)NC(=O)[C@@H](CC(C)C)NC(=O)[C@H](Cc1ccc(O)cc1)NC(=O)[C@H](CO)NC(=O)[C@H](Cc1c[nH]c2ccccc12)NC(=O)[C@H](Cc1c[nH]cn1)NC(=O)[C@@H]1CCC(=O)N1` [LEUPROLIDE ACETATE], the half-inhibitory concentration (IC50) in test [1] is 80.2 µM; in test [2] it was greater than 133 µM; in test [3] it was greater than 133 µM; in test [4], greater than 133 µM.
Take `C=CC[N+]1([C@H]2C[C@H]3[C@@H]4CC[C@H]5C[C@H](O)[C@@H](N6CCOCC6)C[C@]5(C)[C@H]4CC[C@]3(C)[C@H]2OC(C)=O)CCCC1` [ROCURONIUM BROMIDE]: the 50% inhibitory concentration (IC50) in test [1], in test [2], in test [3] and in test [4] was greater than 133 µM each time.
For the compound `Cn1nnc2c(C(N)=O)ncn2c1=O` [TEMOZOLOMIDE], the IC50 in test [1], in test [2], in test [3] and in test [4] was greater than 133 µM each time.
Turning to `CN1CCN(C2=Nc3cc(Cl)ccc3Nc3ccccc32)CC1` [CLOZAPINE], the concentration for half-maximal inhibition (IC50) in test [1], in test [2], in test [3] and in test [4] was greater than 133 µM in each case.
As to `CNCC[C@@H](Oc1ccccc1C)c1ccccc1` [ATOMOXETINE HYDROCHLORIDE], the IC50 in test [1], in test [2], in test [3] and in test [4] was greater than 133 µM in each case.
In the case of `CC1(C)O[C@@H]2C[C@H]3[C@@H]4C[C@H](F)C5=CC(=O)C=C[C@]5(C)[C@H]4[C@@H](O)C[C@]3(C)[C@]2(C(=O)CO)O1` [FLUNISOLIDE], the IC50 in test [1], in test [2], in test [3] and in test [4] was greater than 133 µM in each case.
Turning to `CC[C@H]1CN2CCc3cc(OC)c(OC)cc3[C@@H]2C[C@@H]1C[C@H]1NCCc2cc(OC)c(OC)cc21` [EMETINE], the IC50 in test [1], in test [2], in test [3] and in test [4] was greater than 133 µM throughout.
As for `Nc1cccc2c1CN(C1CCC(=O)NC1=O)C2=O` (stereo unspecified) [LENALIDOMIDE], the 50% inhibitory concentration (IC50) in test [1], in test [2], in test [3] and in test [4] was greater than 133 µM throughout.
For the compound `C#CCN[C@@H]1CCc2ccccc21` [RASAGILINE MESYLATE], the half-inhibitory concentration (IC50) in test [1], in test [2], in test [3] and in test [4] was greater than 133 µM in each case.
Regarding `Cc1cn([C@H]2C[C@H](N=[N+]=[N-])[C@@H](CO)O2)c(=O)[nH]c1=O` [ZIDOVUDINE], the IC50 in test [1], in test [2], in test [3] and in test [4] was greater than 133 µM in each case.
`CC(C)NNC(=O)c1ccncc1` [IPRONIAZID]: the concentration for half-maximal inhibition (IC50) in test [1], in test [2], in test [3] and in test [4] was greater than 133 µM in each case.
With `CCC1(c2ccc(N)cc2)CCC(=O)NC1=O` (stereo unspecified) [AMINOGLUTETHIMIDE], the IC50 in test [1], in test [2], in test [3] and in test [4] was greater than 133 µM each time.
With `Cc1cnc(C(=O)O)c[n+]1[O-]` [ACIPIMOX], the half-maximal inhibitory concentration (IC50) in test [1], in test [2], in test [3] and in test [4] was greater than 133 µM in each case.
Turning to `CN(C)CCc1c[nH]c2ccc(C[C@H]3COC(=O)N3)cc12` [ZOLMITRIPTAN], the IC50 in test [1], in test [2], in test [3] and in test [4] was greater than 133 µM throughout.
As for `CN(CCOc1ccc(NS(C)(=O)=O)cc1)CCc1ccc(NS(C)(=O)=O)cc1` [DOFETILIDE], the concentration for half-maximal inhibition (IC50) in test [1], in test [2], in test [3] and in test [4] was greater than 133 µM throughout.
On to `NCC1O[C@H](O[C@H]2[C@@H](O)[C@H](O[C@H]3[C@H](O)[C@@H](N)C[C@@H](N)[C@@H]3O[C@H]3O[C@H](CN)[C@@H](O)[C@H](O)[C@H]3N)O[C@@H]2CO)[C@H](N)[C@@H](O)[C@@H]1O` (stereo partly specified), for which the half-maximal inhibitory concentration (IC50) in test [1], in test [2], in test [3] and in test [4] was greater than 133 µM throughout.
`CC(C)OC(=O)CCC/C=C\C[C@@H]1[C@@H](/C=C/[C@@H](O)COc2cccc(C(F)(F)F)c2)[C@H](O)C[C@@H]1O` [TRAVOPROST]: the IC50 was greater than 133 µM in test [1], 74 µM in test [2], 43.9 µM in test [3] and greater than 133 µM in test [4].
As for `CCN(CC)CCNC(=O)c1ccc(NC(C)=O)cc1` [ACECAINIDE], the IC50 in test [1], in test [2], in test [3] and in test [4] was greater than 133 µM each time.
Turning to `CN(C)CCCC1(c2ccc(F)cc2)OCc2cc(C#N)ccc21` (stereo unspecified) [CITALOPRAM], the 50% inhibitory concentration (IC50) in test [1], in test [2], in test [3] and in test [4] was greater than 133 µM in each case.
With `Oc1ccc2c(c1)[C@@]13CCCC[C@@]1(O)[C@@H](C2)N(CC1CCC1)CC3` [BUTORPHANOL], the IC50 in test [1], in test [2], in test [3] and in test [4] was greater than 133 µM each time.
As to `CCOC(=O)c1ccc(C#Cc2ccc3c(c2)C(C)(C)CCS3)nc1` [TAZAROTENE], the half-maximal inhibitory concentration (IC50) in test [1], in test [2], in test [3] and in test [4] was greater than 133 µM in each case.
Turning to `Cc1cc(NC(=O)C2=C(O)c3ccccc3S(=O)(=O)N2C)no1` [ISOXICAM], the IC50 in test [1], in test [2], in test [3] and in test [4] was greater than 133 µM each time.
As for `c1ccc2c(c1)OCC(C1=NCCN1)O2` (stereo unspecified) [IDAZOXAN], the IC50 in test [1], in test [2], in test [3] and in test [4] was greater than 133 µM in each case.
For the compound `CCCCC[C@H](O)/C=C/[C@@H]1[C@@H](C/C=C\CCCC(=O)O)[C@@H](O)C[C@H]1O` [DINOPROST TROMETHAMINE], the 50% inhibitory concentration (IC50) in test [1] is […]; in test [2], 7.1 µM; in test [3] it was […]; in test [4], […].
With `CN1CCN(C(=O)O[C@H]2c3nccnc3C(=O)N2c2ccc(Cl)cn2)CC1` [ESZOPICLONE], the IC50 in test [1], in test [2], in test [3] and in test [4] was greater than 133 µM in each case.
Regarding `COc1ccccc1OCCNCC(O)COc1cccc2[nH]c3ccccc3c12` (stereo unspecified) [CARVEDILOL], the IC50 in test [1], in test [2], in test [3] and in test [4] was greater than 133 µM each time.
On to `NS(=O)(=O)c1cc(C2(O)NC(=O)c3ccccc32)ccc1Cl` (stereo unspecified) [CHLORTHALIDONE], for which the IC50 in test [1], in test [2], in test [3] and in test [4] was greater than 133 µM each time.
For the compound `CCC(=O)O[C@]1(C(=O)SCF)[C@H](C)C[C@H]2[C@@H]3C[C@H](F)C4=CC(=O)C=C[C@]4(C)[C@@]3(F)[C@@H](O)C[C@@]21C` [FLUTICASONE PROPIONATE], the concentration for half-maximal inhibition (IC50) in test [1], in test [2], in test [3] and in test [4] was greater than 133 µM in each case.
